Results published in US10723705B2, “Heterocyclic compounds and uses thereof” (Incyte Corporation, priority 2015, dated 2020).
Where two headings read alike, the source gives them in different places.

Molecular target: Human recombinant Histone Deacetylase 8 (HDAC8) (Homo sapiens (Human), UniProt Q9BY41)
Experiment: HDAC8 Enzymatic Assay (HDAC-Glo I/II luminescence)
Type: biochemical
Procedure: HDAC-Glo™ I/II Assay Kit was purchased from Promega Corporation (Madison, Wis.), including the following components: HDAC-Glo I/II Buffer (25 mM Tris buffer, pH 8.0, supplemented with 137 mM: NaCl, 2.7 mM KCl, 1% v/v Triton X-100 and 1 mM: MgCl2), luminogenic substrates Boc-GAK(Ac)-aminoluciferin (HDAC-Glo I/II substrate), proprietary developer reagent (containing trypsin). Human recombinant Histone Deacetylase 8 (HDAC8) was purchased from Enzo Life Sciences (Plymouth Meeting, Pa.).
The HDAC8 reaction was performed at room temperature in white 384-well polystyrene, flat-bottom microtiter plate (Greiner Bio-one, Monroe, N.C.) in a final volume of 20 μL. Test compounds were first diluted serially in DMSO and 100 nL were transferred to the plate wells by Echo 550 (Labcyte, Sunnyvale, Calif.) before the addition of other reaction components. The final concentration of DMSO in the assay was 0.5%. The HDAC-Glo I/II assay reagent was prepared by rehydration of lyophilized HDAC-Glo I/II substrate in 10 mL. HDAC-Glo I/II assay buffer followed with the addition of 10 μL of developer reagent. 10 uL of 3 nM HDAC8 in the HDAC-Glo I/II assay buffer were first dispensed into the microliter plate containing the compounds and incubated at room temperature for 30 min. The reactions were initiated with the addition of 10 uL HDAC-Glo I/II assay reagent with Multidrop (Thermo, Waltham, Mass.). The final concentration of HDAC8 and HDAC-Glo I/II substrate in the reaction were 1.5 nM and 50 μM, respectively. The assay plate was mixed for 1 min by orbital shaking (500 rpm) and centrifuged for 1 min at 1500 rpm. After 15 min at room temperature, luminescence signals were measured on TopCount (Perkin Elmer). Wells with no compound served as the positive controls and wells containing no HDAC8 were used as negative controls. IC50 determination was performed by fitting the curve of percentage control activity versus the log of the compound concentration using the GraphPad Prism 6.0 software.

[1] = class symbols, Table 14, read-out: HDAC8 IC50

Human recombinant Histone Deacetylase 8 (HDAC8), sequence (Q9BY41 whole entry): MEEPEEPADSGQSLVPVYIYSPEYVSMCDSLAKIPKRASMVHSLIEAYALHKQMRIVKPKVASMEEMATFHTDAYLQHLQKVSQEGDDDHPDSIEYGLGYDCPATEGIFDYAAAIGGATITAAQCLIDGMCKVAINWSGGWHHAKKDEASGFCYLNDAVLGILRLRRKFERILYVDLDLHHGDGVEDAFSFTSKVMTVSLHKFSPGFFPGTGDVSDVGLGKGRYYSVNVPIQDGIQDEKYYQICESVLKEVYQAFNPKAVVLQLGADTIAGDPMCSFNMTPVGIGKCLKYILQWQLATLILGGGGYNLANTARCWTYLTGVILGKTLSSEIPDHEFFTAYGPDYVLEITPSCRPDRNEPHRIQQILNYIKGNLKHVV

Structure (SMILES)	IC50 [1]	IC50 (HDAC8, read-out: IC50)
CC(=O)N1CCN(c2cncc(-c3ccc4cnn(C(Cc5ccccc5)C(=O)NO)c4c3)c2)CC1 (centres unmarked) [Compound I-0144, 2-(6-(5-(4-acetylpiperazin-1-yl)pyridin-3-yl)-1H-indazol-1-yl)-N-hydroxy-3-phenylpropanamide]	50 to 200 nM	
O=C(NO)C(Cc1ccccc1)c1cnc2c(-c3ccncc3)cccn12 (centres unmarked) [Compound I-0162, N-hydroxy-3-phenyl-2-(8-(pyridin-4-yl)imidazo[1,2-a]pyridin-3-yl)propanamide]	200 to 500 nM	
O=C(NO)C(Cc1ccccc1)n1ncc2ccccc21 (centres unmarked) [Compound I-0102, N-hydroxy-2-(1H-indazol-1-yl)-3-phenylpropanamide]	> 500 nM	
O=C(NO)C(Cc1ccccc1)n1ncc2cc(C3CC3)ccc21 (centres unmarked) [Compound I-0019, 2-(5-cyclopropyl-1H-indazol-1-yl)-N-hydroxy-3-phenylpropanamide]	> 500 nM	
O=C(NO)C(Cc1ccccc1)n1cc2cccc(CN3CCOCC3)c2n1 (centres unmarked) [Compound I-0183, N-hydroxy-2-(7-(morpholinomethyl)-2H-indazol-2-yl)-3-phenylpropanamide]	200 to 500 nM	
O=C(NO)C(Cc1ccccc1)n1cc2cc(Cl)ccc2n1 (centres unmarked) [Compound I-0003, 2-(5-Chloro-2H-indazol-2-yl)-N-hydroxy-3-phenylpropanamide]	200 to 500 nM	338 nM
O=C(NO)C(Cc1ccccc1)n1cc2cc(-c3cncnc3)ccc2n1 (centres unmarked) [Compound I-0051, N-hydroxy-3-phenyl-2-(5-(pyrimidin-5-yl)-2H-indazol-2-yl)propanamide]	200 to 500 nM	
NC(=O)c1ccc(-c2cccc3c(C#CC4CC4)n(C(Cc4ccccc4)C(=O)NO)nc23)cc1 (centres unmarked) [Compound I-0138, 4-(3-(cyclopropylethynyl)-2-(1-(hydroxyamino)-1-oxo-3-phenylpropan-2-yl)-2H-indazol-7-yl)benzamide]	≤ 50 nM	
O=C(NO)C(Cc1ccccc1)n1ncc2cc(C3CC3)ncc21 (centres unmarked) [Compound I-0098, 2-(5-cyclopropyl-1H-pyrazolo[3,4-c]pyridin-1-yl)-N-hydroxy-3-phenylpropanamide]	> 500 nM	
O=C(NO)C(Cc1ccccc1)n1cc2cc(-c3ccncc3)ccc2n1 (centres unmarked) [Compound I-0050, N-hydroxy-3-phenyl-2-(5-(pyridin-4-yl)-2H-indazol-2-yl)propanamide]	200 to 500 nM	
Cn1cc(-c2cnc3c(cnn3C(Cc3ccccc3)C(=O)NO)c2)cn1 (centres unmarked) [Compound I-0120, N-hydroxy-2-(5-(1-methyl-1H-pyrazol-4-yl)-1H-pyrazolo[3,4-b]pyridin-1-yl)-3-phenylpropanamide]	200 to 500 nM	
CNC(=O)c1ccc(-c2nccc3c(C#CC4CC4)n(C(Cc4ccccc4)C(=O)NO)nc23)cc1 (centres unmarked) [Compound I-0141, 4-(3-(cyclopropylethynyl)-2-(1-(hydroxyamino)-1-oxo-3-phenylpropan-2-yl)-2H-pyrazolo[3,4-c]pyridin-7-yl)-N-methylbenzamide]	≤ 50 nM	
O=C(NO)C(Cc1ccccc1)n1cc2c(n1)CCCC2 (centres unmarked) [Compound I-0200, N-hydroxy-3-phenyl-2-(4,5,6,7-tetrahydro-2H-indazol-2-yl)propanamide]	200 to 500 nM	
NC(=O)c1ccc(-c2ccc3nn(C(Cc4ccccc4)C(=O)NO)c(C#CC4CC4)c3c2)cc1 (centres unmarked) [Compound I-0026, 4-(3-(cyclopropylethynyl)-2-(1-(hydroxyamino)-1-oxo-3-phenylpropan-2-yl)-2H-indazol-5-yl)benzamide]	≤ 50 nM	
O=C(NO)C(Cc1ccccc1)n1cc2c(C3CC3)cccc2n1 (centres unmarked) [Compound I-0062, 2-(4-cyclopropyl-2H-indazol-2-yl)-N-hydroxy-3-phenylpropanamide]	> 500 nM	
NC(=O)c1ccc(-c2cc3cnn(C(Cc4ccccc4)C(=O)NO)c3cn2)cc1 (centres unmarked) [Compound I-0089, 4-(1-(1-(hydroxyamino)-1-oxo-3-phenylpropan-2-yl)-1H-pyrazolo[3,4-c]pyridin-5-yl)benzamide]	200 to 500 nM	
O=C(NO)C(Cc1ccccc1)n1cc2cccc(Br)c2n1 (centres unmarked) [Compound I-0068, 2-(7-bromo-2H-indazol-2-yl)-N-hydroxy-3-phenylpropanamide]	200 to 500 nM	
COCc1ccc(-c2cccc3nn(C(Cc4ccccc4)C(=O)NO)cc23)cc1 (centres unmarked) [Compound I-0147, N-hydroxy-2-(4-(4-(methoxymeth-yl)phenyl)-2H-indazol-2-yl)-3-phenylpropanamide]	200 to 500 nM	

Structure (SMILES)	IC50 [1]	IC50 (HDAC8, read-out: IC50)
O=C(NO)C(Cc1ccccc1)n1cc2c(N3CCOCC3)cccc2n1 (centres unmarked) [Compound I-0059, N-hydroxy-2-(4-morpholino-2H-indazol-2-yl)-3-phenylpropanamide]	> 500 nM	
O=C(NO)C(Cc1ccccc1)n1ncc2ccc(-c3ccccc3)cc21 (centres unmarked) [Compound I-0022, N-hydroxy-3-phenyl-2-(6-phenyl-1H-indazol-1-yl)propanamide]	> 500 nM	
O=C(NO)C(Cc1ccccc1)n1cc2ccc(F)cc2n1 (centres unmarked) [Compound I-0037, 2-(6-fluoro-2H-indazol-2-yl)-N-hydroxy-3-phenylpropanamide]	> 500 nM	
Cc1n[nH]cc1-c1cccc2c(C#CC3CC3)n(C(Cc3ccccc3)C(=O)NO)nc12 (centres unmarked) [Compound I-0166, 2-(3-(cyclopropylethynyl)-7-(3-methyl-1H-pyrazol-4-yl)-2H-indazol-2-yl)-N-hydroxy-3-phenylpropanamide]	≤ 50 nM	
Cn1nccc1-c1ccc2c(cnn2C(Cc2ccccc2)C(=O)NO)c1 (centres unmarked) [Compound I-0010, N-hydroxy-2-(5-(1-methyl-1H-pyrazol-5-yl)-1H-indazol-1-yl)-3-phenylpropanamide]	50 to 200 nM	
O=C(NO)C(Cc1ccccc1)n1ncc2cc(C3CCC(N4CCCC4)CC3)ccc21 (centres unmarked) [Compound I-0153, N-hydroxy-3-phenyl-2-(5-(4-(pyrrolidin-1-yl)cyclohexyl)-1H-indazol-1-yl)propanamide]	50 to 200 nM	
O=C(NO)C(Cc1ccccc1)n1ncc2cc(Br)cnc21 (centres unmarked) [Compound I-0122, 2-(5-bromo-1H-pyrazolo[3,4-b]pyridin-1-yl)-N-hydroxy-3-phenylpropanamide]	200 to 500 nM	
O=C(NO)C(Cc1ccccc1)n1ncc2cc(-c3cncnc3)ccc21 (centres unmarked) [Compound I-0012, N-hydroxy-3-phenyl-2-(5-(pyrimidin-5-yl)-1H-indazol-1-yl)propanamide]	50 to 200 nM	
CN1CC=C(c2cccc3c2cnn3C(Cc2ccccc2)C(=O)NO)CC1 (centres unmarked) [Compound I-0085, N-hydroxy-2-(4-(1-methyl-1,2,3,6-tetrahydropyridin-4-yl)-1H-indazol-1-yl)-3-phenylpropanamide]	200 to 500 nM	
O=C(NO)C(Cc1ccccc1)n1ncc2ccc(-c3cnn(CCN4CCOCC4)c3)cc21 (centres unmarked) [Compound I-0143, N-hydroxy-2-(6-(1-(2-morpholinoethyl)-1H-pyrazol-4-yl)-1H-indazol-1-yl)-3-phenylpropanamide]	> 500 nM	
Cn1nccc1-c1nccc2cn(C(Cc3ccccc3)C(=O)NO)nc12 (centres unmarked) [Compound I-0199, N-hydroxy-2-(7-(1-methyl-1H-pyrazol-5-yl)-2H-pyrazolo[3,4-c]pyridin-2-yl)-3-phenylpropanamide]	≤ 50 nM	
Cn1nc(C(Cc2ccccc2)C(=O)NO)c2ccc(-c3cncnc3)cc21 (centres unmarked) [Compound I-0204, N-hydroxy-2-(1-methyl-6-pyrimidin-5-yl-1H-indazol-3-yl)-3-phenylpropanamide]	50 to 200 nM	84 nM
O=C(NO)C(Cc1ccccc1)n1ncc2cc(-c3cccnc3)ccc21 (centres unmarked) [Compound I-0104, N-hydroxy-3-phenyl-2-(5-(pyridin-3-yl)-1H-indazol-1-yl)propanamide]	50 to 200 nM	
O=C(NO)C(Cc1ccccc1)n1ncc2nc(Cl)ccc21 (centres unmarked) [Compound I-0076, 2-(5-chloro-1H-pyrazolo[4,3-b]pyridin-1-yl)-N-hydroxy-3-phenylpropanamide]	50 to 200 nM	
COc1ncc(-c2cc3cnn(C(Cc4ccccc4)C(=O)NO)c3cn2)cn1 (centres unmarked) [Compound I-0094, N-hydroxy-2-(5-(2-methoxypyrimidin-5-yl)-1H-pyrazolo[3,4-c]pyridin-1-yl)-3-phenylpropanamide]	200 to 500 nM	
O=C(NO)C(Cc1ccccc1)n1cc2cccc(CN3CCC4(CCOCC4)CC3)c2n1 (centres unmarked) [Compound I-0187, 2-(7-(3-oxa-9-azaspiro[5.5]undecan-9-ylmethyl)-2H-indazol-2-yl)-N-hydroxy-3-phenylpropanamide]	> 500 nM	
Cn1nccc1-c1cnc2c(cnn2C(Cc2ccccc2)C(=O)NO)c1 (centres unmarked) [Compound I-0119, N-hydroxy-2-(5-(1-methyl-1H-pyrazol-5-yl)-1H-pyrazolo[3,4-b]pyridin-1-yl)-3-phenylpropanamide]	200 to 500 nM	
O=C(NO)C(Cc1ccccc1)n1cc2cncc(C#CC3CC3)c2n1 (centres unmarked) [Compound I-0053, 2-(7-(cyclopropylethynyl)-2H-pyrazolo[4,3-c]pyridin-2-yl)-N-hydroxy-3-phenylpropanamide]	200 to 500 nM	
